Test results: patent US9307764B2, “Pesticidal diaryl—heterocyclyl derivatives” (BAYER INTELLECTUAL PROPERTY GMBH, priority 2011, dated 2016)

Experiments:
Type in all cases: in vivo
Spodoptera litura = assay: Biological Test Example 3: Test on larvae of Spodoptera litura (method using artificial feeds); conditions: 100 ppm effective component concentration, 3rd-instar larvae, after 7 days, 25° C.
Protocol: (§1) Unless other methods are mentioned specifically, the sample solution preparation was prepared as follows.
(§2) Solvent: 3 parts by weight of dimethyl formamide
(§3) Emulsifier: 1 part by weight of polyoxyethylene alkyl phenyl ether
(§4) To prepare a suitable concoction including the active compound, 1 part by weight of the active compound was mixed with the above amount of the solvent containing the above amount of the emulsifier, and the resulting mixture was diluted with water to predetermined concentrations.
Powdery artificial feeds (trade name: SILK MATE, manufactured by Nihon Nosan Kogyo, Japan, 2.3 g) were added to a plastic cup (diameter: 7.5 cm, height: 4 cm) to achieve a certain thickness. Water-diluted liquid (5 mL) of the active compound prepared above having predetermined concentration was evenly poured thereto and allowed to stand until the feeds are solidified. Five of the 3rd-instar larvae of Spodoptera litura were released in each cup, and covered with a lid. The cups were put in a temperature controlled room at 25° C. having humidity of 50 to 60%, and the number of dead larvae after 7 days was determined to calculate the pesticidal ratio. 100% pesticidal ratio means death of all the larvae, while 0% pesticidal ratio means no dead larvae.

Tetranychus urticae = assay: Biological Test Example 1: Test on Tetranychus urticae (spray on Egyptian bean leaves); conditions: 100 ppm effective component concentration, adult mites, seven days later
Protocol: as §1, §2, §3, §4
50 to 100 of adult Tetranychus urticae were inoculated to leaves at 2-leaf stage of Egyptian bean planted in pots of 6 cm in diameter, to which, 1 day later, the above prepared water diluted solution of the active compound at the predetermined concentration was sufficiently sprayed with a spray gun. After the compounds were sprayed, the pots were left in a greenhouse and the acaricidal ratio was calculated seven days later. 100% acaricidal ratio means death of all the mites, while 0% acaricidal ratio means none of the mites were dead.

Aulacophora femoralis = assay: Biological Test Example 2: Test on Aulacophora femoralis (cucumber leaf immersion); conditions: 100 ppm effective component concentration, 2nd-instar larvae, seven days later, 25° C.
Protocol: as §1, §2, §3, §4
Leaves of cucumbers were immersed in the water-diluted solution containing the active compound at the predetermined concentration which was prepared above and, after the solution was air-dried, the resultant leaves were put onto sterilized black soil in a plastic cup, into which five of the 2nd-instar larvae of Aulacophora femoralis were then released. The cup was covered with a lid and maintained in a temperature controlled room at 25° C. having humidity of 50 to 60%. Seven days later, the number of dead larvae was counted to calculate the pesticidal ratio. 100% pesticidal ratio means death of all the larvae, while 0% pesticidal ratio means no dead larvae.

SMILES | pesticidal ratio (Spodoptera litura) [%] | acaricidal ratio (Tetranychus urticae) [%] | pesticidal ratio (Aulacophora femoralis) [%]
CCC(=O)NCc1ccc(N2COC(c3cc(Cl)c(Cl)c(Cl)c3)(C(F)(F)F)C2)cc1C(F)(F)F (centres unmarked) [Compound No. 1-17, N-{4-[5-(3,4,5-trichlorophenyl)-5-(trifluoromethyl)-1,3-oxazolidin-3-yl]-2-(trifluoromethyl)benzyl}propane amide] | 100 | 100 | 100
CCC(=O)NCc1ccc(N2CC(c3cc(Cl)c(Cl)c(Cl)c3)(C(F)(F)F)OS2(=O)=O)cc1C(F)(F)F (centres unmarked) [5-17, N-{4-[2,2-dioxide-5-(3,4,5-trichlorophenyl)-5-(trifluoromethyl)-1,2,3-oxathiazolin-3-yl]-2-(trifluoromethyl)benzyl}propane amide] | 100 | 100 | 100
CCC(=O)NCc1ccc(N2CC(c3cc(Cl)c(Cl)c(Cl)c3)(C(F)(F)F)OS2=O)cc1C(F)(F)F (centres unmarked) [3-17, N-{4-[2-oxide-5-(3,4,5-trichlorophenyl)-5-(trifluoromethyl)-1,2,3-oxathiazolin-3-yl]-2-(trifluoromethyl)benzyl}propane amide] | 100 |  | 100
